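Briefly, cells in 96-well plates were exposed to five compound concentrations for 48 h, and endpoints were estimated by linear interpolation. TGI: concentration producing complete growth inhibition.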

We go through 9 molecules from PubChem BioAssay (NCI).

Test systems include A549 NSCLC; HCC-2998 colon; HCT-116 colon; HOP-92 NSCLC; KM12 colon; M14 melanoma; MDA-MB-231 breast; MOLT-4 leukemia; NCI-H226 lung; PC-3 prostate; SF-268 CNS; SK-MEL-5 melanoma; SNB-75 CNS; SW-620 colon; TK-10 renal; UACC-62 melanoma; NCI-H460 lung.
Holding throughout (test): growth of human tumour cells (NCI), 48 h

Turning to `FC1=C2CCCCCC2SC1(F)F` (stereo unspecified), the TGI with A549 NSCLC was above 100 µM; in the test on HCC-2998 colon, above 100 µM; in the test on HCT-116 colon, above 100 µM; in the test with HOP-92 NSCLC, 70.2 µM; in the test with KM12 colon, above 100 µM; with M14 melanoma, above 100 µM. For the same molecule, the TGI is above 100 µM with MDA-MB-231 breast; 44.1 µM in the test with MOLT-4 leukemia; above 100 µM in the test with NCI-H226 lung; above 100 µM in the test on PC-3 prostate; above 100 µM in the test on SF-268 CNS; above 100 µM with SK-MEL-5 melanoma. The TGI in the test with SNB-75 CNS is above 100 µM; with SW-620 colon, 28.9 µM; with TK-10 renal, above 100 µM; in the test on UACC-62 melanoma, above 100 µM.
As for `CCN(CC)CCO/N=C1/C=C2CCC3C(CC[C@@]4(C)C3CC[C@]4(C)O)[C@@]2(C)CC1` (stereo partly specified), the TGI turned out to be 45.9 µM in the test with A549 NSCLC; 19 µM with HCC-2998 colon; 16.7 µM in the test on HCT-116 colon; 21 µM in the test with HOP-92 NSCLC; 18.9 µM in the test on KM12 colon; 23.8 µM in the test with M14 melanoma. The TGI with MDA-MB-231 breast stood at 36 µM; in the test on MOLT-4 leukemia it was 10.2 µM; in the test on NCI-H226 lung, 10.2 µM; with NCI-H460 lung, 15.3 µM; in the test on PC-3 prostate, 88.1 µM; in the test on SF-268 CNS, 31.2 µM. Also, the TGI in the test on SK-MEL-5 melanoma turned out to be 26 µM; with SNB-75 CNS it was 9.15 µM; in the test with TK-10 renal, 45.1 µM; in the test with UACC-62 melanoma it was 8.57 µM.
With `COC(=O)c1c(-c2ccccc2)c2sc3ccccc3n2c1N`, the TGI in the test with A549 NSCLC was above 100 µM; in the test on HCC-2998 colon it was above 100 µM; with HCT-116 colon, above 100 µM; in the test on HOP-92 NSCLC it was 98 µM; in the test with KM12 colon, 88.8 µM; with M14 melanoma, above 100 µM. Further, the TGI with MDA-MB-231 breast, in the test with NCI-H226 lung, in the test on NCI-H460 lung, in the test with PC-3 prostate, in the test on SF-268 CNS and with SK-MEL-5 melanoma was above 100 µM in each case. Moreover, the TGI with SNB-75 CNS, in the test with TK-10 renal and in the test on UACC-62 melanoma was above 100 µM each time.
As to `CC(=O)OCC(Br)C1(C)CCC(C(C)(C)Br)O1` (stereo unspecified), the TGI in the test on A549 NSCLC, in the test on HCC-2998 colon, with HCT-116 colon, in the test on HOP-92 NSCLC, in the test on KM12 colon and in the test with M14 melanoma was above 100 µM in each case. Besides, the TGI in the test on MDA-MB-231 breast, in the test on MOLT-4 leukemia, with NCI-H226 lung, in the test on NCI-H460 lung, with PC-3 prostate and in the test on SF-268 CNS was above 100 µM each time. Further, the TGI in the test with SK-MEL-5 melanoma, in the test with SNB-75 CNS, with SW-620 colon and in the test with TK-10 renal was above 100 µM each time.
As to `S=c1[nH]nc(NNc2ccccc2)n1Nc1ccccc1`, the TGI with A549 NSCLC is above 100 µM; in the test with HCC-2998 colon, above 100 µM; in the test with HCT-116 colon it was above 100 µM; in the test with HOP-92 NSCLC, above 79.9 µM; in the test with KM12 colon, above 100 µM; with M14 melanoma it was above 100 µM. Moreover, the TGI in the test on MDA-MB-231 breast is above 100 µM; with NCI-H226 lung, above 96.6 µM; in the test on NCI-H460 lung it was above 54.6 µM; with PC-3 prostate, above 100 µM; with SF-268 CNS it was above 100 µM; in the test on SK-MEL-5 melanoma, above 100 µM. For the same molecule, the TGI with SNB-75 CNS, in the test with SW-620 colon, in the test on TK-10 renal and with UACC-62 melanoma was above 100 µM each time.
For `CC1OC(OC2C(Oc3cc(O)c4c(c3)O[C@H](c3ccc(O)cc3)CC4=O)OC(CO)C(O)C2O)C(O)C(O)C1O` (stereo partly specified), the TGI in the test on A549 NSCLC, in the test on HCC-2998 colon, in the test on HCT-116 colon, with HOP-92 NSCLC, with KM12 colon and with M14 melanoma was above 100 µM throughout. Besides, the TGI in the test with MDA-MB-231 breast, in the test with MOLT-4 leukemia, in the test with NCI-H226 lung, in the test with PC-3 prostate, in the test on SF-268 CNS and in the test with SK-MEL-5 melanoma was above 100 µM in each case. Besides, the TGI in the test on SNB-75 CNS, in the test with SW-620 colon, in the test with TK-10 renal and in the test on UACC-62 melanoma was above 100 µM in each case.
`CC(C)(C)OC(=O)N(CCCCNCc1ccc2ccccc2c1)CCCNCc1ccc2ccccc2c1`: the TGI with A549 NSCLC worked out at 3.82 µM; in the test on HCC-2998 colon it was 0.549 µM; in the test with HCT-116 colon it was 2.4 µM; in the test with HOP-92 NSCLC it was 3.18 µM; in the test on KM12 colon, 2.73 µM; in the test on MDA-MB-231 breast, 2.28 µM. The TGI is 2.28 µM with MOLT-4 leukemia; 3.08 µM in the test with NCI-H226 lung; 2.18 µM with NCI-H460 lung; 4.06 µM in the test on PC-3 prostate; 3.29 µM in the test with SF-268 CNS; 2.99 µM in the test with SNB-75 CNS. Moreover, the TGI in the test on SW-620 colon is 3.54 µM; in the test with TK-10 renal, 3.07 µM; in the test with UACC-62 melanoma, 3.08 µM.
As for `N#CCCN(CCN(CCC#N)C(=O)Nc1ccccc1)C(=O)Nc1ccccc1`, the TGI with A549 NSCLC, with HCC-2998 colon, with HCT-116 colon, in the test on HOP-92 NSCLC, in the test on M14 melanoma and with MDA-MB-231 breast was above 100 µM in each case. Further, the TGI is above 100 µM in the test with MOLT-4 leukemia; above 100 µM with NCI-H226 lung; above 100 µM in the test on NCI-H460 lung; above 100 µM with PC-3 prostate; 87.9 µM with SF-268 CNS; above 100 µM in the test with SK-MEL-5 melanoma. Also, the TGI was 47.8 µM in the test on SNB-75 CNS, above 100 µM in the test on SW-620 colon, above 100 µM with TK-10 renal and above 100 µM with UACC-62 melanoma.
For the molecule `CN(C)Cc1cc(N=Nc2ccc(Cl)cc2)ccc1OC(=O)c1ccccc1`, the TGI with A549 NSCLC was 13.6 µM; in the test on HCC-2998 colon it was 31 µM; with HCT-116 colon, 29.9 µM; with HOP-92 NSCLC, 11.1 µM; in the test on KM12 colon, 29.6 µM; in the test on MDA-MB-231 breast, 28.6 µM. The TGI worked out at 26.1 µM in the test on MOLT-4 leukemia; 54.3 µM in the test on NCI-H226 lung; 32.4 µM in the test with NCI-H460 lung; 29 µM in the test on PC-3 prostate; 59.9 µM with SF-268 CNS; 28.8 µM in the test on SK-MEL-5 melanoma. For the same molecule, the figures for the TGI in the test with SNB-75 CNS, in the test on SW-620 colon and in the test with TK-10 renal were 38.7 µM, 30.5 µM and 29.8 µM, respectively.
